Measured values reported in PubChem BioAssay (NCI).
Values joined by “and” are separate entries in the source; they are usually repeats but may differ in a detail not shown here. Equal values may be shown once.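 Dose response: 5 concentrations. Exposure: 48 h. Format: 96-well plates. Endpoint: linear interpolation; highest concentration if not reached. GI50 is the concentration that inhibits growth by half. TGI: concentration producing complete growth inhibition.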

Tests used:
Assay in all cases: NCI-60 cell line screen, 48 h
UACC-257 melanoma = system: UACC-257 melanoma
SNB-19 CNS = system: SNB-19 CNS
IGROV1 ovarian = system: IGROV1 ovarian
HCT-116 colon = system: HCT-116 colon
RPMI-8226 leukemia = system: RPMI-8226 leukemia
SK-MEL-2 melanoma = system: SK-MEL-2 melanoma
A549 NSCLC = system: A549 NSCLC
HL-60(TB) leukemia = system: HL-60(TB) leukemia
COLO 205 colon = system: COLO 205 colon
OVCAR-4 ovarian = system: OVCAR-4 ovarian

## O=C(O)c1ccc(C(=O)O)c(C(=O)Nc2ccc3c(c2)C(=O)c2ccccc2-3)c1
UACC-257 melanoma
  TGI: > 100 µM
SNB-19 CNS
  TGI: > 100 µM
IGROV1 ovarian
  TGI: > 100 µM
HCT-116 colon
  TGI: > 100 µM
RPMI-8226 leukemia
  TGI: > 100 µM
SK-MEL-2 melanoma
  TGI: > 100 µM
A549 NSCLC
  TGI: > 100 µM
HL-60(TB) leukemia
  TGI: > 100 µM
COLO 205 colon
  TGI: > 100 µM
OVCAR-4 ovarian
  TGI: > 100 µM

## O=C(Nc1ccc(/C=C/c2ccc(NC(=O)c3cc(S(=O)(=O)O)c4cccnc4c3O)cc2S(=O)(=O)O)c(S(=O)(=O)O)c1)c1cc(S(=O)(=O)O)c2cccnc2c1O
UACC-257 melanoma
  GI50: 25.8 µM
  TGI: > 56.3 µM
SNB-19 CNS
  GI50: 12.2 µM
  TGI: > 100 µM
IGROV1 ovarian
  GI50: 18.5 µM
  TGI: > 60.2 µM
HCT-116 colon
  GI50: 4.54 µM
  TGI: > 43.3 µM
RPMI-8226 leukemia
  GI50: 27 µM
  TGI: > 65.2 µM
SK-MEL-2 melanoma
  GI50: > 53.8 µM
  TGI: > 69.7 µM
A549 NSCLC
  GI50: 9.49 µM
  TGI: > 56 µM
HL-60(TB) leukemia
  GI50: 0.337 µM
  TGI: 3.2 µM
COLO 205 colon
  GI50: 19.9 µM
  TGI: > 57.5 µM
OVCAR-4 ovarian
  GI50: > 54.4 µM
  TGI: > 75.2 µM

## N#C[Se]CCCNS(=O)(=O)C1CC2C=CC1C2 (centres undefined)
UACC-257 melanoma
  GI50: 0.648 µM
  TGI: 3.09 µM
SNB-19 CNS
  GI50: 1.05 µM
  TGI: 2.91 µM
IGROV1 ovarian
  GI50: 0.383 µM
  TGI: 1.65 µM
HCT-116 colon
  GI50: 0.276 µM
  TGI: 0.827 µM
RPMI-8226 leukemia
  GI50: 2.17 µM
  TGI: 5.55 µM
SK-MEL-2 melanoma
  GI50: 2 µM
  TGI: 6.15 µM
A549 NSCLC
  GI50: 0.601 µM
  TGI: 2.63 µM
HL-60(TB) leukemia
  GI50: 0.326 µM
  TGI: 1.31 µM
COLO 205 colon
  GI50: 2.3 µM
  TGI: 5.83 µM
OVCAR-4 ovarian
  GI50: 1.48 µM
  TGI: 8.57 µM

## O=C1c2cccc(NCCN=Cc3ccccc3O)c2C(=O)c2c(NCCN=Cc3ccccc3O)cccc21
UACC-257 melanoma
  GI50: 1.44 µM
  TGI: 4.3 µM
SNB-19 CNS
  GI50: 0.776 µM
  TGI: 3.54 µM
IGROV1 ovarian
  GI50: 0.237 µM
  TGI: 0.504 µM
HCT-116 colon
  GI50: 0.387 µM
RPMI-8226 leukemia
  GI50: 0.878 µM
  TGI: 4.29 µM
SK-MEL-2 melanoma
  GI50: 1.2 µM
  TGI: 3.67 µM
A549 NSCLC
  GI50: 0.668 µM
  TGI: 14.3 µM
HL-60(TB) leukemia
  GI50: 1.09 µM
  TGI: 3.4 µM
COLO 205 colon
  GI50: 0.46 µM
  TGI: 2.18 µM
OVCAR-4 ovarian
  TGI: 2.39 µM

## COC(=O)C(Cc1nc2ccccc2nc1C)/C(=N\NC(N)=O)C(=O)Nc1cccc([N+](=O)[O-])c1 (centres undefined)
UACC-257 melanoma
  TGI: > 100 µM
SNB-19 CNS
  TGI: > 100 µM
IGROV1 ovarian
  TGI: > 100 µM
HCT-116 colon
  TGI: > 100 µM
RPMI-8226 leukemia
  TGI: > 100 µM
SK-MEL-2 melanoma
  TGI: > 100 µM
A549 NSCLC
  TGI: > 100 µM
HL-60(TB) leukemia
  TGI: > 100 µM
COLO 205 colon
  TGI: > 100 µM
OVCAR-4 ovarian
  TGI: > 100 µM

## O=C(Nc1n[nH]c2nnc(-c3cccnc3)cc12)C1CC1
UACC-257 melanoma
  GI50: > 17.4 µM
  TGI: > 25 µM
SNB-19 CNS
  GI50: > 11.9 µM
  TGI: > 25 µM
IGROV1 ovarian
  GI50: > 11.7 µM
  TGI: > 25 µM
HCT-116 colon
  GI50: 4.47 µM
  TGI: > 19.5 µM
RPMI-8226 leukemia
  GI50: > 25 µM
  TGI: > 25 µM
SK-MEL-2 melanoma
  GI50: 21.8 µM
  TGI: > 25 µM
A549 NSCLC
  GI50: > 20.7 µM
  TGI: > 25 µM
HL-60(TB) leukemia
  GI50: > 13.6 µM
  TGI: > 22.6 µM
COLO 205 colon
  GI50: 7.45 µM
  TGI: > 25 µM
OVCAR-4 ovarian
  GI50: 7.66 µM
  TGI: > 25 µM

## Cn1cc(C2=C(c3cn(C)c4ccccc34)C(=O)NC2=O)c2ccccc21
UACC-257 melanoma
  GI50: 4.17 µM
  TGI: > 25 µM
SNB-19 CNS
  GI50: 11.5 µM
  TGI: > 25 µM
IGROV1 ovarian
  GI50: 11.7 µM
  TGI: > 25 µM
HCT-116 colon
  GI50: 1.17 µM
  TGI: > 25 µM
RPMI-8226 leukemia
  GI50: > 8.42 µM
  TGI: > 25 µM
SK-MEL-2 melanoma
  GI50: 0.894 µM
  TGI: > 14 µM
A549 NSCLC
  GI50: 1.97 µM
  TGI: > 25 µM
HL-60(TB) leukemia
  GI50: 0.747 µM
  TGI: 5.1 µM
COLO 205 colon
  GI50: 1.1 µM
  TGI: > 25 µM
OVCAR-4 ovarian
  GI50: 5.01 µM
  TGI: > 25 µM

## O=c1ssc(Cl)c1Cl
UACC-257 melanoma
  TGI: > 10 µM
SNB-19 CNS
  TGI: > 10 µM
IGROV1 ovarian
  TGI: > 10 µM
HCT-116 colon
  TGI: > 10 µM
RPMI-8226 leukemia
  TGI: 9.11 µM
SK-MEL-2 melanoma
  TGI: > 10 µM
A549 NSCLC
  TGI: > 10 µM
HL-60(TB) leukemia
  TGI: 6.04 µM
COLO 205 colon
  TGI: 4.32 µM
OVCAR-4 ovarian
  TGI: > 10 µM

## CN1C/C=C/CCOc2cccc(c2)-c2ccnc(n2)Nc2cccc(c2)C1
UACC-257 melanoma
  GI50: 0.0505 µM
  TGI: 0.225 µM
SNB-19 CNS
  GI50: 0.0574 µM
  TGI: 4.4 µM
IGROV1 ovarian
  GI50: 0.0324 µM
  TGI: 0.338 µM
HCT-116 colon
  GI50: 0.0277 µM
  TGI: 1.08 µM
RPMI-8226 leukemia
  GI50: 0.058 µM
  TGI: 0.879 µM
SK-MEL-2 melanoma
  GI50: 0.0374 µM
  TGI: 0.125 µM
A549 NSCLC
  GI50: 0.0394 µM
  TGI: 1.12 µM
HL-60(TB) leukemia
  GI50: 0.0259 µM
  TGI: 0.0941 µM
COLO 205 colon
  GI50: 0.0204 µM
  TGI: 0.0442 µM
OVCAR-4 ovarian
  GI50: 0.108 µM
  TGI: 1.31 µM

## Cc1ccccc1-n1c2nc(=O)n(C)c(=O)c-2nc2ccccc21
UACC-257 melanoma
  TGI: 21.4 µM
SNB-19 CNS
  TGI: 28.8 µM
IGROV1 ovarian
  TGI: 37.9 µM
HCT-116 colon
  TGI: 28.3 µM
RPMI-8226 leukemia
  TGI: 44.9 µM
SK-MEL-2 melanoma
  TGI: 32.5 µM
A549 NSCLC
  TGI: 35.4 µM
HL-60(TB) leukemia
  TGI: 35.8 µM
COLO 205 colon
  TGI: 13.9 µM
OVCAR-4 ovarian
  TGI: 26.6 µM

## COc1cc2c(cc1OC)C1Cc3cc(OC)c(OC)cc3C(C2)N1C
UACC-257 melanoma
  TGI: > 100 µM
SNB-19 CNS
  TGI: > 100 µM
IGROV1 ovarian
  TGI: > 75 µM
HCT-116 colon
  TGI: > 75 µM
RPMI-8226 leukemia
  GI50: 17.1 µM and > 100 µM
  TGI: > 100 µM
SK-MEL-2 melanoma
  TGI: > 100 µM
A549 NSCLC
  TGI: > 100 µM
HL-60(TB) leukemia
  TGI: > 75 µM
COLO 205 colon
  TGI: > 75 µM
OVCAR-4 ovarian
  TGI: > 100 µM

## CN1CCN(C)C12C=CC=CC21CC1
UACC-257 melanoma
  TGI: > 100 µM
SNB-19 CNS
  TGI: > 100 µM
IGROV1 ovarian
  TGI: > 100 µM
HCT-116 colon
  TGI: > 100 µM
RPMI-8226 leukemia
  TGI: > 100 µM
SK-MEL-2 melanoma
  TGI: > 100 µM
A549 NSCLC
  TGI: > 100 µM
HL-60(TB) leukemia
  TGI: > 100 µM
COLO 205 colon
  TGI: > 100 µM
OVCAR-4 ovarian
  TGI: > 100 µM

## COc1ccc(Nc2cc(C)nc(NCCCNc3ccnc4cc(Cl)ccc34)n2)cc1
UACC-257 melanoma
  GI50: 1.84 µM
  TGI: 3.51 µM
SNB-19 CNS
  GI50: 3.48 µM
  TGI: 13.4 µM
IGROV1 ovarian
  GI50: 2.25 µM
  TGI: 6.09 µM
HCT-116 colon
  GI50: 1.27 µM
  TGI: 3.82 µM
RPMI-8226 leukemia
  GI50: 1.81 µM
  TGI: 5 µM
SK-MEL-2 melanoma
  GI50: 2.19 µM
  TGI: 3.76 µM
A549 NSCLC
  GI50: 1.91 µM
  TGI: 3.86 µM
HL-60(TB) leukemia
  GI50: 2.37 µM
  TGI: 5.66 µM
COLO 205 colon
  GI50: 1.58 µM
  TGI: 3.22 µM
OVCAR-4 ovarian
  GI50: 1.44 µM
  TGI: 4.86 µM

## CCOc1cccc(-c2nc(N)nc(Nc3ccccc3SSc3ccccc3Nc3nc(N)nc(-c4cccc(OCC)c4)n3)n2)c1
UACC-257 melanoma
  GI50: > 100 µM
  TGI: > 100 µM
SNB-19 CNS
  GI50: 4.94 µM
  TGI: > 100 µM
IGROV1 ovarian
  GI50: 3.65 µM
  TGI: 97 µM
HCT-116 colon
  GI50: 3.95 µM
  TGI: > 100 µM
RPMI-8226 leukemia
  GI50: 2.18 µM
  TGI: 6.89 µM
SK-MEL-2 melanoma
  GI50: 6.12 µM
  TGI: > 100 µM
A549 NSCLC
  GI50: 2.02 µM
  TGI: 4.78 µM
HL-60(TB) leukemia
  GI50: 2.14 µM
  TGI: 6.09 µM
COLO 205 colon
  GI50: 35.8 µM
  TGI: > 100 µM
OVCAR-4 ovarian
  GI50: 5.87 µM
  TGI: > 100 µM

## CC(=O)N1N=C2/C(=C/c3ccc(Cl)cc3)CC(C)CC2C1c1ccc(Cl)cc1 (centres undefined)
UACC-257 melanoma
  GI50: 19.9 µM
  TGI: 56.1 µM
SNB-19 CNS
  GI50: 23.7 µM
  TGI: > 100 µM
IGROV1 ovarian
  GI50: 22.5 µM
  TGI: 67.2 µM
HCT-116 colon
  GI50: 12.6 µM
  TGI: 25.2 µM
RPMI-8226 leukemia
  GI50: 9.14 µM
  TGI: 32.6 µM
SK-MEL-2 melanoma
  GI50: 17.4 µM
  TGI: 36.7 µM
A549 NSCLC
  GI50: 20.6 µM
  TGI: > 100 µM
HL-60(TB) leukemia
  GI50: 13.5 µM
  TGI: 59.5 µM
COLO 205 colon
  GI50: 11.8 µM
  TGI: 24.5 µM
OVCAR-4 ovarian
  GI50: 27.9 µM
  TGI: > 100 µM
